Biological target: recombinant mTOR (FLAG-tagged, residues 1362-2549) (Homo sapiens, UniProt P42345)
Assay: In vitro mTOR kinase assay (Test (a), AlphaScreen)
Assay type: biochemical
Conditions: ATP 20 μM, read-out: Test (a): IC50 versus mTOR kinase
Outline: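 AlphaScreen read-out: a phospho-T389 p70 S6K antibody on acceptor beads captures the phosphorylated biotin-peptide on donor beads, with signal loss indicating inhibition.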

recombinant mTOR (FLAG-tagged, residues 1362-2549), sequence (P42345 1362-2549): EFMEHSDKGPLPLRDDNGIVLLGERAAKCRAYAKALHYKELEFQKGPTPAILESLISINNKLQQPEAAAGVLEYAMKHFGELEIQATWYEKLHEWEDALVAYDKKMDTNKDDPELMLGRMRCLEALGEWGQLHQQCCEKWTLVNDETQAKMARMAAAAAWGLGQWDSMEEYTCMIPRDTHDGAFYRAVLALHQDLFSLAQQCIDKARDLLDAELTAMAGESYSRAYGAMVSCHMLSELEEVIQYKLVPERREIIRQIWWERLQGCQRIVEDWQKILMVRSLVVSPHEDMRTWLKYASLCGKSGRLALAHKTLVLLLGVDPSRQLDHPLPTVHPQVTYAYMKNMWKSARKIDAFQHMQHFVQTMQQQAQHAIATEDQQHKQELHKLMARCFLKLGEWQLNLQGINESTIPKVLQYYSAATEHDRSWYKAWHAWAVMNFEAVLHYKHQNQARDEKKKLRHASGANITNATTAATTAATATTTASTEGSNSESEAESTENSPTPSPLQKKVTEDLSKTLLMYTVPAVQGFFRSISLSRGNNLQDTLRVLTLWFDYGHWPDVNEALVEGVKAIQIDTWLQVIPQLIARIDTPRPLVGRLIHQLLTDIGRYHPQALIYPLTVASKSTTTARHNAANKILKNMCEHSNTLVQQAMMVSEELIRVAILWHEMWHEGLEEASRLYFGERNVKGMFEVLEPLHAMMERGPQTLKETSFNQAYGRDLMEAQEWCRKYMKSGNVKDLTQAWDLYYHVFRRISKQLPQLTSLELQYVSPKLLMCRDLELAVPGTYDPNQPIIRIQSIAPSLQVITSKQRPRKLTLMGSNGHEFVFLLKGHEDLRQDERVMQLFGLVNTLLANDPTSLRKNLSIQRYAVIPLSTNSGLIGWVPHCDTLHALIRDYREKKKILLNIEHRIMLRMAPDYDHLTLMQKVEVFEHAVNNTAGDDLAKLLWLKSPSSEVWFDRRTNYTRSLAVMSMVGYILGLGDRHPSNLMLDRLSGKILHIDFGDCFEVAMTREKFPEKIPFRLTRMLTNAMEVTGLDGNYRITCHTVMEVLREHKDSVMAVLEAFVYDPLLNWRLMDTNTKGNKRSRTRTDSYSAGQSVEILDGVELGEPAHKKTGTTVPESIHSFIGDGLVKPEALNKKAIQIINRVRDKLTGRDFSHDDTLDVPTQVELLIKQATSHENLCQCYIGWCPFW

Structure (SMILES) | IC50
C[C@H]1COCCN1c1cc(C(=O)NC2CC2)nc(-c2ccc(NC(=O)NC3CC3)cc2)n1 [Example 36a, N-cyclopropyl-2-[4-(cyclopropylcarbamoylamino)phenyl]-6-[(3S)-3-methylmorpholin-4-yl]pyrimidine-4-carboxamide] | 2900 nM
CS(=O)(=O)Cc1cc(N2CCOCC2)nc(-c2ccc(NC(=O)NCc3ncc[nH]3)cc2)n1 [Example 8d, 3-(1H-imidazol-2-ylmethyl)-1-[4-[4-(methylsulfonylmethyl)-6-morpholin-4-yl-pyrimidin-2-yl]phenyl]urea] | 570 nM
CC(C)NC(=O)Nc1ccc(-c2nc(CS(C)(=O)=O)cc(N3CCOC[C@@H]3C)n2)cc1 [Example 1c, 3-[4-[4-[(3S)-3-methylmorpholin-4-yl]-6-(methylsulfonylmethyl)pyrimidin-2-yl]phenyl]-1-propan-2-yl-urea] | 78 nM
C[C@H]1COCCN1c1cc(C(C)(C)S(C)(=O)=O)nc(-c2cnc(NC(=O)NCc3cnn(C)c3)nc2)n1 [Example 24z, 1-[5-[4-[(3S)-3-methylmorpholin-4-yl]-6-(2-methylsulfonylpropan-2-yl)pyrimidin-2-yl]pyrimidin-2-yl]-3-[(1-methylpyrazol-4-yl)methyl]urea] | 370 nM
CNC(=O)NC1CCN(c2nc(CS(C)(=O)=O)cc(N3CCOC[C@@H]3C)n2)CC1 [Example 23, 3-Methyl-1-[1-[4-[(3S)-3-methylmorpholin-4-yl]-6-(methylsulfonylmethyl)pyrimidin-2-yl]-4-piperidyl]urea] | 5600 nM
C[C@H]1COCCN1c1cc(C(C)(C)S(C)(=O)=O)nc(-c2ccc(NC(=O)Nc3cc[nH]n3)cc2)n1 [Example 24v, 1-[4-[4-[(3S)-3-methylmorpholin-4-yl]-6-(2-methylsulfonylpropan-2-yl)pyrimidin-2-yl]phenyl]-3-(1H-pyrazol-3-yl)urea] | 55 nM
C[C@H]1COCCN1c1cc(C(C)(C)S(C)(=O)=O)nc(N2CCC(NC(=O)NCc3cnn(C)c3)CC2)n1 [Example 24q, 1-[1-[4-[(3S)-3-methylmorpholin-4-yl]-6-(2-methylsulfonylpropan-2-yl)pyrimidin-2-yl]-4-piperidyl]-3-[(1-methylpyrazol-4-yl)methyl]urea] | 5800 nM
Cc1cc(-c2nc(CS(C)(=O)=O)cc(N3CCOC[C@@H]3C)n2)ccc1NC(=O)Nc1ccccc1 [Example 3, 1-[2-Methyl-4-[4-[(3S)-3-methylmorpholin-4-yl]-6-(methylsulfonylmethyl)pyrimidin-2-yl]phenyl]-3-phenyl-urea] | 1500 nM
CN(C)CCNC(=O)Nc1ccc(-c2nc(N3CCOCC3)cc(C(C)(C)S(C)(=O)=O)n2)cc1 [Example 21c, 3-(2-dimethylaminoethyl)-1-[4-[4-(2-methylsulfonylpropan-2-yl)-6-morpholin-4-yl-pyrimidin-2-yl]phenyl]urea] | 480 nM
COc1ccc(NC(=O)Nc2ccc(-c3nc(N4CCOC[C@@H]4C)cc(C(C)(C)S(C)(=O)=O)n3)cc2)cn1 [Example 24x, 3-(6-methoxypyridin-3-yl)-1-[4-[4-[(3S)-3-methylmorpholin-4-yl]-6-(2-methylsulfonylpropan-2-yl)pyrimidin-2-yl]phenyl]urea] | 100 nM
C[C@H]1COCCN1c1cc(CS(=O)(=O)c2ccccc2)nc(-c2ccc(NC(=O)N(C)C)cc2)n1 [Example 15, 3-[4-[4-(Benzenesulfonylmethyl)-6-[(3S)-3-methylmorpholin-4-yl]pyrimidin-2-yl]phenyl]-1,1-dimethyl-urea] | 1000 nM
Cc1cc(NC(=O)Nc2ccc(-c3nc(CS(C)(=O)=O)cc(N4CCOC[C@@H]4C)n3)cc2)no1 [Example 22d, 3-[4-[4-[(3S)-3-methylmorpholin-4-yl]-6-(methylsulfonylmethyl)pyrimidin-2-yl]phenyl]-1-(5-methyl-1,2-oxazol-3-yl)urea] | 4.8 nM
CCNC(=O)Nc1ccc(-c2nc(CO)cc(N3CCOC[C@@H]3C)n2)cc1 [Example 5, 1-Ethyl-3-[4-[4-(hydroxymethyl)-6-[(3S)-3-methylmorpholin-4-yl]pyrimidin-2-yl]phenyl]urea] | 63 nM
CC(=O)NCCS(=O)(=O)Cc1cc(N2CCOC[C@@H]2C)nc(-c2ccc(NC(=O)NCc3cnn(C)c3)cc2)n1 [Example 53, N-[2-[[6-[(3S)-3-methylmorpholin-4-yl]-2-[4-[(1-methylpyrazol-4-yl)methylcarbamoylamino]phenyl]pyrimidin-4-yl]methylsulfonyl]ethyl]acetamide] | 640 nM
C[C@H]1COCCN1c1cc(CS(C)(=O)=O)nc(-c2ccc(NC(=O)Nc3ccccc3)c(F)c2)n1 [Example 1g, 1-[2-fluoro-4-[4-[(3S)-3-methylmorpholin-4-yl]-6-(methylsulfonylmethyl)pyrimidin-2-yl]phenyl]-3-phenyl-urea] | 960 nM
CS(=O)(=O)Cc1cc(N2CCOCC2)nc(-c2ccc(NC(=O)Nc3ccc(C(F)(F)F)cc3)cc2)n1 [Example 7c, 1-[4-[4-(methylsulfonylmethyl)-6-morpholin-4-yl-pyrimidin-2-yl]phenyl]-3-[4-(trifluoromethyl)phenyl]urea] | 1700 nM
C[C@H]1COCCN1c1cc(CS(=O)(=O)c2ccncc2)nc(-c2ccc(NC(=O)NC3CC3)cc2)n1 [Example 43, 3-Cyclopropyl-1-[4-[4-[(3S)-3-methylmorpholin-4-yl]-6-(pyridin-4-ylsulfonylmethyl)pyrimidin-2-yl]phenyl]urea] | 76 nM
C[C@H]1COCCN1c1cc(C(C)(C)S(C)(=O)=O)nc(-c2cc(F)c(NC(=O)NCc3cnn(C)c3)c(F)c2)n1 [Example 24ae, 1-[2,6-difluoro-4-[4-[(3S)-3-methylmorpholin-4-yl]-6-(2-methylsulfonylpropan-2-yl)pyrimidin-2-yl]phenyl]-3-[(1-methylpyrazol-4-yl)methyl]urea] | 240 nM
CNC(=O)Nc1ccc(-c2nc(CS(=O)(=O)c3ccccc3)cc(N3CCOCC3)n2)cc1 [Example 20, 3-[4-[4-(Benzenesulfonylmethyl)-6-morpholin-4-yl-pyrimidin-2-yl]phenyl]-1-methyl-urea] | 43 nM
CS(=O)(=O)Cc1cc(N2CCOCC2)nc(-c2ccc(NC(N)=O)cc2)n1 [Example 34, [4-[4-(Methylsulfonylmethyl)-6-morpholin-4-yl-pyrimidin-2-yl]phenyl]urea] | 210 nM
C[C@H]1COCCN1c1cc(C(C)(C)S(C)(=O)=O)nc(-c2ccc(NC(=O)Nc3ccccc3)cc2)n1 [Example 24w, 1-[4-[4-[(3S)-3-methylmorpholin-4-yl]-6-(2-methylsulfonylpropan-2-yl)pyrimidin-2-yl]phenyl]-3-phenyl-urea] | 34 nM

Second part, the molecule after the results:

IC50 | Structure (SMILES)
1100 nM | CN(CCS(C)(=O)=O)C(=O)Nc1ccc(-c2nc(CS(C)(=O)=O)cc(N3CCOCC3)n2)cc1 [Example 45x, 1-methyl-1-(2-methylsulfonylethyl)-3-[4-[4-(methylsulfonylmethyl)-6-morpholin-4-yl-pyrimidin-2-yl]phenyl]urea]
390 nM | C[C@H]1COCCN1c1cc(CS(C)(=O)=O)nc(-c2ccc(NC(=O)N3CCC(N(C)C)CC3)cc2)n1 [Example 45ab, 4-dimethylamino-N-[4-[4-[(3S)-3-methylmorpholin-4-yl]-6-(methylsulfonylmethyl)pyrimidin-2-yl]phenyl]piperidine-1-carboxamide]
920 nM | CC(C)(C)CNC(=O)Nc1ccc(-c2nc(CS(C)(=O)=O)cc(N3CCOCC3)n2)cc1 [Example 45p, 1-(2,2-dimethylpropyl)-3-[4-[4-(methylsulfonylmethyl)-6-morpholin-4-yl-pyrimidin-2-yl]phenyl]urea]
32 nM | C[C@H]1COCCN1c1cc(CNCCCN(C)C)nc(-c2ccc(NC(=O)NC3CC3)cc2)n1 [Example 49e, 3-cyclopropyl-1-[4-[4-[(3-dimethylaminopropylamino)methyl]-6-[(3S)-3-methylmorpholin-4-yl]pyrimidin-2-yl]phenyl]urea]
180 nM | C[C@H]1COCCN1c1cc(CN2CCCN(C)CC2)nc(-c2ccc(NC(=O)NC3CC3)cc2)n1 [Example 49h, 3-cyclopropyl-1-[4-[4-[(4-methyl-1,4-diazepan-1-yl)methyl]-6-[(3S)-3-methylmorpholin-4-yl]pyrimidin-2-yl]phenyl]urea]
200 nM | C[C@H]1COCCN1c1cc(CN2CCOCC2)nc(-c2ccc(NC(=O)NC3CC3)cc2)n1 [Example 49f, 3-cyclopropyl-1-[4-[4-[(3S)-3-methylmorpholin-4-yl]-6-(morpholin-4-ylmethyl)pyrimidin-2-yl]phenyl]urea]
150 nM | C[C@H]1COCCN1c1cc(CS(=O)(=O)c2ccc(F)cc2)nc(-c2ccc(NC(=O)NC3CC3)cc2)n1 [Example 43b, 3-cyclopropyl-1-[4-[4-[(4-fluorophenyl)sulfonylmethyl]-6-[(3S)-3-methylmorpholin-4-yl]pyrimidin-2-yl]phenyl]urea]
58 nM | Cc1csc(S(=O)(=O)Cc2cc(N3CCOC[C@@H]3C)nc(-c3ccc(NC(=O)NC4CC4)cc3)n2)n1 [Example 43i, 3-cyclopropyl-1-[4-[4-[(3S)-3-methylmorpholin-4-yl]-6-[(4-methyl-1,3-thiazol-2-yl)sulfonylmethyl]pyrimidin-2-yl]phenyl]urea]
30 nM | C[C@H]1COCCN1c1cc(CS(=O)(=O)c2ccncc2)nc(-c2ccc(NC(=O)NCc3cnn(C)c3)cc2)n1 [Example 53c, 1-[4-[4-[(3S)-3-methylmorpholin-4-yl]-6-(pyridin-4-ylsulfonylmethyl)pyrimidin-2-yl]phenyl]-3-[(1-methylpyrazol-4-yl)methyl]urea]
560 nM | CS(=O)(=O)Cc1cc(N2CCOCC2)nc(-c2ccc(NC(=O)NCCN3CCNC3=O)cc2)n1 [Example 45e, 1-[4-[4-(methylsulfonylmethyl)-6-morpholin-4-yl-pyrimidin-2-yl]phenyl]-3-[2-(2-oxoimidazolidin-1-yl)ethyl]urea]
1600 nM | CS(=O)(=O)Cc1cc(N2CCOCC2)nc(-c2ccc(NC(=O)N3CCCC3)cc2)n1 [Example 45f, N-[4-[4-(methylsulfonylmethyl)-6-morpholin-4-yl-pyrimidin-2-yl]phenyl]pyrrolidine-1-carboxamide]

— US7750003B2, “Compounds-943” (AstraZeneca AB, priority 2006, dated 2010)
